Test results from patent US6048852A, “β-thiopropionyl-aminoacid derivatives and their use as β-lactamase inhibitors” (SmithKline Beecham p.l.c., priority 1996, dated 2000).
Read-outs that look alike come from different tables or passages of the source.

Columns and labels:
[1] = biological target: B. fragilis CfiA metallo-β-lactamase (Bacteroides fragilis, UniProt P25910); experiment: I50 screen, nitrocefin reporter substrate, CfiA metallo-β-lactamase; type: biochemical; settings: 25 mM PIPES pH 7, 37° C., nitrocefin 91 μM, 5 minute preincubation, Zn2+ 100 μM; enumerated Examples; read-out: I50 values against B. fragilis CfiA metallo-β-lactamase
B. fragilis CfiA metallo-β-lactamase, sequence (P25910 19-249): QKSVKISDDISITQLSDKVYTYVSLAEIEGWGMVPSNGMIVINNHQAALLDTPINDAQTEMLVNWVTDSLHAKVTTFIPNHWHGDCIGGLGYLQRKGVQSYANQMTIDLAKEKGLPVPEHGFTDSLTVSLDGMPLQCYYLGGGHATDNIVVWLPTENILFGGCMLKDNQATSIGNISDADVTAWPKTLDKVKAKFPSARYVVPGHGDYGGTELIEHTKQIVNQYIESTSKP
Method: The inhibitory activity of the compounds of the invention was measured in 25 mM PIPES pH 7 buffer at 10 concentrations (1000, 333, 111, 37, 12.3, 4.1, 1.4, 0.46, 0.15 and 0.05 μM) at 37° C. using nitrocefin (91 μM final concentration) as the reporter substrate. The assays were performed with a 5 minute preincubation of enzyme and inhibitor and were conducted in the presence of added zinc sulphate (Zn^2+ 100 μM, final concentration). the methodology is described in detail in the following references: Payne et al (1991), J. Antimicrob. Chemother., 28:255; Payne et al (1994), Antimicrob. Agents and Chemother., 38:767.

[2] = tested on: Bacteroides fragis 262 strain, which produces CfiA metallo-β-lactamase; experiment: Antibacterial activity (MIC) in combination with meropenem; type: cell-based, Bacteroides fragilis
Text: Antibacterial activity of compounds of the invention in combination with the carbapenem antibiotic, meropenem, against the Bacteroides fragis 262 strain, which produces CfiA metallo-β-lactamase:
[MIC=minimum inhibitory concentration (μg/ml)]

[3] = read-out: MIC (μg/ml) of compound alone

| IC50 [1] | Structure (SMILES) | MIC ([2]; read-out: MIC (μg/ml) of meropenem alone) | MIC [2, 3] |
| --- | --- | --- | --- |
| < 1000 nM | O=C(N[C@@H](C(=O)O)c1ccccc1)C(CS)C1CCc2ccccc21 (stereo partly drawn) [Example 41, N-[2'-(Indan-1-yl)-3'-mercaptopropanoyl]-D-phenylglycine] |  |  |
|  | C[C@@H](O)[C@H]1C(=O)N2C(C(=O)O)=C(S[C@@H]3CN[C@H](C(=O)N(C)C)C3)[C@H](C)[C@H]12 [meropenem, reference compound] | > 128 µg/mL |  |
| < 1000 nM | Cn1cc(C(NC(=O)C(CS)Cc2ccccc2)C(=O)O)cn1 (stereo not drawn) [Example 25, N-[2'-Benzyl-3'-mercaptopropionyl]4-[1-methylisoiinidazolyl]glycine] |  |  |
| < 1000 nM | O=C(N[C@@H](C(=O)O)c1ccccc1)C(CS)CCc1ccc2nc(C(F)(F)F)ccc2c1 (single isomer, unassigned) [47 (Isomer B), N-[2'-(Mercaptomethyl)-4'-(2"-trifluoromethylquinolin-6"-yl)butanoyl]-D-phenylglycine] |  |  |
|  | CC(S)C(Cc1ccccc1)C(=O)N[C@@H](C(=O)O)c1ccccc1 (single isomer, unassigned) [Example 50 (all isomers), N-[2'-Benzyl-3'-mercaptobutanoyl]-D-phenylglycine] |  | > 128 µg/mL |
|  | O=C(N[C@@H](C(=O)O)c1ccccc1)C(Cc1ccccc1)C1(S)CC1 (stereo partly drawn) [Example 52, N-[2'-Benzyl-2'-(1"-mercaptocyclopropyl)acetyl]-D-phenylglycine] |  | > 128 µg/mL |
| < 1000 nM | O=C(N[C@@H](C(=O)O)c1ccc(O)c(O)c1)C(CS)Cc1ccccc1 (stereo partly drawn) [Example 15, N-[2'-Benzyl-3'-mercaptopropionyl]-3,4-dihydroxy-D-phenylglycine] |  |  |
| < 1000 nM | O=C(N[C@@H](C(=O)O)c1ccccc1)C(CS)CCCCc1ccccc1 (stereo partly drawn) [Example 39, N-[2'-Mercaptomethyl-6'-phenylhexanoyl]-D-phenylglycine] |  |  |
| < 1000 nM | O=C(N[C@@H](Cc1c[nH]c2ccccc12)C(=O)O)C(CS)Cc1ccccc1 (stereo partly drawn) [5d), N-[2'-Benzyl-3'-mercaptopropionyl]tryptophan] |  |  |
| < 1000 nM | O=C(NC(C(=O)O)c1ccco1)C(CS)Cc1ccccc1 (stereo not drawn) [Example 30, N-[2'-Benzyl-3'-mercaptopropionyl]-2-(2"-furanyl)glycine] |  |  |
| < 1000 nM | O=C(NC(C(=O)O)c1ccccc1)C(CS)Cc1ccccc1 (stereo not drawn) [Example 9e), N-[2'-Benzyl-3'-mercaptopropionyl]phenylglycine] |  |  |
| < 1000 nM | O=C(N[C@@H](C(=O)O)c1ccccc1)C(CS)CCOc1ccccc1 (stereo partly drawn) [Example 42, N-[2'-Mercaptomethyl-4'-phenoxybutanoyl]-D-phenylglycine] |  |  |
| < 1000 nM | O=C(NC(C(=O)O)c1cccc(F)c1)C(CS)Cc1ccccc1 (stereo not drawn) [Example 17, N-[2'-Benzyl-3'-mercaptopropionyl]-3-fluorophenylglycine] |  |  |
| < 1000 nM | O=C(N[C@H](Cc1c[nH]c2ccccc12)C(=O)O)C(CS)Cc1ccccc1 (stereo partly drawn) [5e), N-[2'-Benzyl-3'-mercaptopropionyl]-D-tryptophan] |  |  |
| < 1000 nM | CC(S)C(CCc1ccccc1)C(=O)N[C@@H](C(=O)O)c1ccccc1 (stereo partly drawn) [Example 44, N-[2'-(1"-Mercaptoethyl)-4'-phenylbutanoyl]-D-phenylglycine] |  |  |
|  | CCC(S)C(Cc1ccccc1)C(=O)N[C@@H](C(=O)O)c1ccccc1 (stereo partly drawn) [Example 49, N-[2-Benzyl-3-mercaptopentanoyl]-D-phenylglycine] |  | > 128 µg/mL |
| < 1000 nM | O=C(N[C@@H](C(=O)O)c1cccc([N+](=O)[O-])c1)C(CS)Cc1ccccc1 (stereo partly drawn) [Example 18, N-[2'-Benzyl-3'-mercaptopropionyl]-3-nitro-D-phenylglycine] |  |  |
| < 1000 nM | O=C(O)c1ccc(CCC(CS)C(=O)N[C@@H](C(=O)O)c2ccccc2)cc1 (single isomer, unassigned) [46 (Isomer A), N-[2'-(Mercaptomethyl)-4'-(4"-hydroxycarbonyl)phenylbutanoyl]-D-phenylglycine] |  |  |
| < 1000 nM | O=C(NC(C(=O)O)c1cccs1)C(CS)Cc1ccccc1 (stereo not drawn) [Example 20, N-[2'-Benzyl-3'-mercaptopropionyl]-2-thienylglycine] |  |  |
| < 1000 nM | O=C(N[C@@H](C(=O)O)c1ccc(F)cc1)C(CS)Cc1ccccc1 (stereo partly drawn) [Example 16, N-[2'-Benzyl-3'-mercaptopropionyl]-4-fluoro-D-phenylglycine] |  |  |
| < 1000 nM | O=C(N[C@@H](C(=O)O)c1ccccc1)[C@@H](CS)Cc1ccccc1 [9i), [2'S]-N-[2'-Benzyl-3'-mercaptopropionyl]-D-phenylglycine] |  |  |
| < 1000 nM | O=C(N[C@@H](C(=O)O)c1ccccc1)[C@@H](CS)CCCCCc1ccccc1 [40f), N-[(S)-2'-Mercaptomethyl-7'-phenylheptanoyl]-D-phenylglycine] |  |  |

| Structure (SMILES) | IC50 [1] | MIC ([2]; read-out: MIC (μg/ml) of meropenem alone) | MIC [2, 3] |
| --- | --- | --- | --- |
| CC(S)C(Cc1ccccc1)C(=O)N[C@@H](C(=O)O)c1ccccc1 (single isomer, unassigned) [Example 50 (Isomer C), N-[2'-Benzyl-3'-mercaptobutanoyl]-D-phenylglycine] | < 1000 nM |  |  |
| O=C(NC(C(=O)O)c1cc2ccccc2s1)C(CS)Cc1ccccc1 (stereo not drawn) [Example 31, N-[2'-Benzyl-3'-mercaptopropionyl]-2-(2"-benzothienyl)glycine] | < 1000 nM |  | > 128 µg/mL |
| O=C(N[C@@H](C(=O)O)c1ccccc1)[C@@H](CS)CCCc1ccccc1 [38f), N-[(S)-2'-Mercaptomethyl-5'-phenylpentanoyl]-D-phenylglycine] | < 1000 nM |  | > 128 µg/mL |
| O=C(N[C@@H](C(=O)O)c1ccccc1)C(CS)CCc1ccc(OC(F)F)cc1 (stereo partly drawn) [Example 55, N-[2'-Mercaptomethyl-4'-(4"-difluoromethoxphenyl)butanoyl)-D-phenylglycine] | < 1000 nM |  | > 128 µg/mL |
| O=C(NC(C(=O)O)c1ccoc1)C(CS)Cc1ccccc1 (stereo not drawn) [Example 32, N-[2'-Benzyl-3'-mercaptopropionyl]-2-(3"-furanyl)glycine] | < 1000 nM |  | > 128 µg/mL |
| O=C(N[C@@H](C(=O)O)c1ccccc1)[C@@H](CS)CCc1ccccc1 [37f), N-[(S)-2'-Mercaptomethyl-4'-phenylbutanoyl]-D-phenylglycine] | < 1000 nM |  | > 128 µg/mL |
| Cc1ccc(C(NC(=O)C(CS)Cc2ccccc2)C(=O)O)cc1 (stereo not drawn) [Example 24, N-[2'-Benzyl-3'-mercaptopropionyl]-4-methylphenylglycine] | < 1000 nM |  | > 128 µg/mL |
| CC(CS)C(=O)N[C@@H](C(=O)O)c1ccccc1 (stereo partly drawn) [Example 22, N-[2'-Methyl-3'-mercaptopropionyl]-D-phenylglycine] | < 1000 nM |  | > 128 µg/mL |
| CC(S)C(Cc1ccccc1)C(=O)N[C@@H](C(=O)O)c1ccccc1 (single isomer, unassigned) [Example 50 (Isomer B), N-[2'-Benzyl-3'-mercaptobutanoyl]-D-phenylglycine] | < 1000 nM |  |  |
| O=C(N[C@@H](C(=O)O)c1ccc(O)cc1)C(CS)Cc1ccccc1 (stereo partly drawn) [Example 12, N-[2'-Benzyl-3'-mercaptopropionyl]-4-hydroxy-D-phenylglycine] | < 1000 nM |  | > 128 µg/mL |
| O=C(N[C@@H](C(=O)O)c1ccccc1)C(CS)Cc1ccccc1 (stereo partly drawn) [Example 9k), N-[2'-Benzyl-3'-mercaptopropionyl]-D-phenylglycine] | < 1000 nM |  | > 128 µg/mL |
| O=C(NC(C(=O)O)c1ccc(O)c([N+](=O)[O-])c1)C(CS)Cc1ccccc1 (stereo not drawn) [Example 14, N-[2'-Benzyl-3'-mercaptopropionyl]-4-hydroxy-3-nitrophenylglycine] | < 1000 nM |  | > 128 µg/mL |
| CC(C)CC(C(=O)N[C@@H](C(=O)O)c1ccccc1)C(C)S (stereo partly drawn) [Example 27, N-[2'-Isobutyl-3'-mercaptobutanoyl]-D phenylglycine] | < 1000 nM |  | > 128 µg/mL |
| CC(C)CC(CS)C(=O)N[C@@H](C(=O)O)c1ccccc1 (stereo partly drawn) [Example 23, N-(4-Methyl-2-mercaptomethylpentanoyl]-D-phenylglycine] | < 1000 nM |  | > 128 µg/mL |
| O=C(NC(C(=O)O)c1ccsc1)C(CS)Cc1ccccc1 (stereo not drawn) [Example 43, N-[2'-Benzyl-3'-mercaptopropionyl]-2-(3"-thienyl)glycine] | < 1000 nM |  | > 128 µg/mL |
| O=C(NC(C(=O)O)c1ccccc1F)C(CS)Cc1ccccc1 (stereo not drawn) [Example 19, N-[2'-Benzyl-3'-mercaptopropionyl]-2-fluorophenylglycine] | < 1000 nM |  | > 128 µg/mL |
| COc1ccc(C(NC(=O)C(CS)Cc2ccccc2)C(=O)O)cc1 (stereo not drawn) [Example 13, N-[2'-Benzyl-3'-mercaptopropionyl]4-methoxyphenylglycine] | < 1000 nM |  | > 128 µg/mL |
